Laboratory results from patent US5618793A, “Nikkomycin analogs” (Schering Corporation, priority 1995, dated 1997).
Converted amounts (≈) assume the structure as drawn. Like-named read-outs stand apart in the source and are kept apart here.

Legend:
[1] = system: Sensitive Strains: Candida albicans C141, Candida sp. C2, Candida sp. C109, Candida parapsilosis C67, Candida tropicalis C112, Torulopsis glabrata C95, Candida …; type: cell-based, Candida spp., Sacchararomyces; settings: geometric mean of MICs against sensitive strains, YNB pH 5.4, 37° C., 48 hours, lowest concentration preventing visible growth
Experimental: (§1) In vitro anti-fungal activity was determined in microtiter minimum inhibitory concentration (MIC) tests using Yeast Nitrogen Broth (YNB without amino acids, Difco., Detroit, Mich.) at pH 5.4. Yeasts were grown overnight in Sabouraud Dextrose Broth at 28° C. with shaking, and concentrations adjusted in sterile saline using a spectrophoptometer at 540 mμ. Compounds were dissolved in various vehicles and diluted in media to twice the final concentrations. The Cetus Pro/Pette system was used to serially dilute 50 μl in round bottom 96 well plates (Falcon, Lincoln Park, N.J.). The turbidometrically adjusted yeast suspensions were diluted 1:3,000 in YNB. These dilutions when added to the wells, produced a final inoculum of 3×10^3 /ml. Plates were incubated at 37° C. for 48 hours. MICs were defined as the lowest concentrations of compound that prevented visible growth. MICs were taken against the following organisms and expressed in the table above as the geometric mean.
(§2) MIC-R and MIC-S mean respectively MICs taken against resistant and sensitive strains.
Candida parapsilosis C67
Candida tropicalis C112
Torulopsis glabrata C95
Candida pseudotropicalis C967
Candida guillermondii C137
Sacchararomyces mutant C147

[2] = system: Resistant Strains: Candida albicans C79, C6, C8, C31, C54, C70, C104, C138, C140; Candida stellatoidea C45; experiment: microtiter minimum inhibitory concentration (MIC) test, resistant strains (MIC-R); type: cell-based; settings: geometric mean of MICs against resistant strains, YNB pH 5.4, 37° C., 48 hours, lowest concentration preventing visible growth
Experimental: as §1, §2
Candida stellatoidea C45

Row | Structure (SMILES) | MIC-S [1] | MIC-R [2] | other results
1 | CCCCCCCCCCCCNC(=O)C(NC(=O)C(N)C(C)Cn1ccnc1)C1OC(n2ccc(=O)[nH]c2=O)C(O)C1O (mixture of isomers) [Compound 11] | 85 µg/mL | 316 µg/mL | –
2 | CCCCCCCCCCCCNC(=O)C(NC(=O)C(N)Cc1csc2ccc(O)cc12)C1OC(n2ccc(=O)[nH]c2=O)C(O)C1O (single isomer, unassigned) [Compound 21] | 158 µg/mL (≈ 234 µM) | 208 µg/mL (≈ 309 µM) | –
3 | CCCCCCCCCCCCNC(=O)C(NC(=O)C(N)Cc1csc2ccc(O)cc12)C1OC(n2ccc(=O)[nH]c2=O)C(O)C1O (single isomer, unassigned) [Compound 22] | 158 µg/mL (≈ 234 µM) | – | MIC-R ([2]; listed as drawing 80): > 256 µg/mL
4 | CCCCNC(=O)[C@@H](NC(=O)[C@@H](N)Cc1c[nH]c2ccc(O)cc12)[C@H]1O[C@@H](n2ccc(=O)[nH]c2=O)[C@H](O)[C@@H]1O [Compound 1] | > 4096 µg/mL | > 4096 µg/mL | –
5 | CCCCCCCCCCCCNC(=O)C(NC(=O)C(N)Cc1c[nH]c2ccc(O)cc12)C1OC(n2ccc(=O)[nH]c2=O)C(O)C1O (centres unmarked) [Compound 3, 6'-Dodecylamido-5-N-(5-hydroxytryptophanyl)UPOC] | 478 µg/mL (≈ 728 µM) | 23 µg/mL (≈ 35 µM) | –
6 | CCCCCCCCCCCCCCCCCCNC(=O)C(NC(=O)C(N)Cc1c[nH]c2ccc(O)cc12)C1OC(n2ccc(=O)[nH]c2=O)C(O)C1O (centres unmarked) [Compound 4] | > 2048 µg/mL | > 2048 µg/mL | –
7 | CCCCCCCCCCCCCCNC(=O)C(NC(=O)C(N)Cc1c[nH]c2ccc(O)cc12)C1OC(n2ccc(=O)[nH]c2=O)C(O)C1O (centres unmarked) [Compound 9] | 147 µg/mL (≈ 215 µM) | > 256 µg/mL | –
8 | CCCCCCCCCCCCNC(=O)C(NC(=O)C(N)C(C)Cc1ccc(O)cn1)C1OC(n2ccc(=O)[nH]c2=O)C(O)C1O (centres unmarked) [Compound 10] | 478 µg/mL (≈ 739 µM) | 147 µg/mL (≈ 227 µM) | –
9 | CCCCCCCCCCCCNC(=O)C(NC(=O)[C@@H](N)C(C)Cc1ccc(OC)cc1)C1OC(n2ccc(=O)[nH]c2=O)C(O)C1O (some centres unmarked) [Compound 12, 6'-Dodecylamido-5-N-(2-S-amino-3-R,S-methyl-4-p-methoxyphenyl-butyryl) UPOC] | 208 µg/mL (≈ 315 µM) | 28 µg/mL (≈ 42.4 µM) | –
10 | CCCCCCCCCCNC(=O)C(NC(=O)C(N)Cc1c[nH]c2ccc(O)cc12)C1OC(n2ccc(=O)[nH]c2=O)C(O)C1O (centres unmarked) [Compound 13] | 388 µg/mL (≈ 617 µM) | 181 µg/mL (≈ 288 µM) | –
11 | CCCCCCCCCCCCN(OCc1ccccc1)C(=O)C(NC(=O)C(N)Cc1c[nH]c2ccc(O)cc12)C1OC(n2ccc(=O)[nH]c2=O)C(O)C1O (centres unmarked) [Compound 14] | 119 µg/mL (≈ 156 µM) | 28 µg/mL (≈ 36.7 µM) | –
12 | CC(C)=CCCC(C)=CCCC(C)=CCNC(=O)C(NC(=O)C(N)Cc1c[nH]c2ccc(O)cc12)C1OC(n2ccc(=O)[nH]c2=O)C(O)C1O (centres unmarked) [Compound 15] | 362 µg/mL (≈ 523 µM) | 143 µg/mL (≈ 206 µM) | –
13 | CCCCCCCCCCCCNC(=O)C(NC(=O)C(N)CCc1ccc2ccccc2n1)C1OC(n2ccc(=O)[nH]c2=O)C(O)C1O (centres unmarked) [Compound 16] | – | – | MIC-S ([1]; listed as drawing 72): 239 µg/mL (≈ 358 µM); MIC-R ([2]; listed as drawing 72): 294 µg/mL (≈ 441 µM)
14 | CCCCCCCCCCCCNC(=O)C(NC(=O)C(N)CCc1ccc2ccccc2n1)C1OC(n2ccc(=O)[nH]c2=O)C(O)C1O (centres unmarked) [Compound 17] | – | – | MIC-S ([1]; listed as drawing 73): 158 µg/mL (≈ 237 µM); MIC-R ([2]; listed as drawing 73): 21 µg/mL (≈ 31.5 µM)
15 | CCCCCCCCCCCCN(O)C(=O)C(NC(=O)C(N)Cc1c[nH]c2ccc(O)cc12)C1OC(n2ccc(=O)[nH]c2=O)C(O)C1O (centres unmarked) [Compound 18] | 239 µg/mL (≈ 355 µM) | 39 µg/mL (≈ 58 µM) | –
16 | NC(Cc1c[nH]c2ccc(O)cc12)C(=O)NC(C(=O)NCc1ccccc1)C1OC(n2ccc(=O)[nH]c2=O)C(O)C1O (centres unmarked) [Compound 20] | > 256 µg/mL | > 256 µg/mL | –
17 | CCCCCCCCCCCCNC(=O)C(NC(=O)C(N)Cc1ccc(OC)cc1)C1OC(n2ccc(=O)[nH]c2=O)C(O)C1O (centres unmarked) [Compound 23] | 56 µg/mL (≈ 88.6 µM) | 9.8 µg/mL (≈ 15.5 µM) | –
18 | CCCCCCCCCCCCNC(=O)C(NC(=O)C(N)c1ccccc1)C1OC(n2ccc(=O)[nH]c2=O)C(O)C1O (centres unmarked) [Compound 24] | 194 µg/mL (≈ 330 µM) | 18 µg/mL (≈ 30.6 µM) | –
19 | CCCCCCCCCCCCNC(=O)C(NC(=O)C(N)Cc1cn(C)c2ccccc12)C1OC(n2ccc(=O)[nH]c2=O)C(O)C1O (centres unmarked) [Compound 25] | > 256 µg/mL | > 256 µg/mL | –
